Patent publication US12371436B2, “Substituted benzodiazoliums as ENaC inhibitors” (ENTERPRISE THERAPEUTICS LIMITED, priority 2016, dated 2025)

System: not listed separately
Test: Bronchoalveolar lavage (BAL) procedure: compound levels after intratracheal administration
Assay type: in vivo
Settings: bronchoalveolar lavage fluid (BAL), other: intratracheal, 0.1 mg/kg, rat, 0.1 mg/mL solution in 5% dextrose, 1 mL/Kg, BAL 6 hours after administration, LC/MS/MS
Protocol: Example 69—Bronchoalveolar Lavage (BAL) Procedure A 0.1 mg/mL solution of ENaC inhibitor in 5% dextrose was administered intratracheally to a rat weighing 225-250 g. A volume of 1 mL/Kg was used. After 6 hours, lungs were lavaged with 3×4 mL of sterile saline. A 1 mL aliquot was subsequently snap frozen. Lungs were excised, weighed and snap frozen. Compound levels in the BAL and lung tissue were subsequently determined using LC/MS/MS bioanalysis.

Compound | concentration at 6 h
CCn1c(CNC(=O)c2nc3cc[nH]c3nc2N)[n+](CC)c2ccc(C(=O)NCCN(C[C@H](O)[C@@H](O)[C@H](O)[C@H](O)CO)C[C@H](O)[C@@H](O)[C@H](O)[C@H](O)CO)cc21 [Example 58, 2-[({3-amino-5H-pyrrolo[2,3-b]pyrazin-2-yl}formamido)methyl]-6-[(2-{bis[(2S,3R,4R,5R)-2,3,4,5,6-pentahydroxyhexyl]amino}ethyl)carbamoyl]-1,3-diethyl-1H-1,3-benzodiazol-3-ium] | 256 ng/mL
CCn1c(CNC(=O)c2nc3cc[nH]c3nc2N)[n+](CC)c2ccc(C(=O)N3CCC(CN(C[C@H](O)[C@@H](O)[C@H](O)[C@H](O)CO)C[C@H](O)[C@@H](O)[C@H](O)[C@H](O)CO)CC3)cc21 [Example 52, 2-[({3-amino-5H-pyrrolo[2,3-b]pyrazin-2-yl}formamido)methyl]-5-[4-({bis[(2S,3R,4R,5R)-2,3,4,5,6-pentahydroxyhexyl]amino}methyl)piperidine-1-carbonyl]-1,3-diethyl-1H-1,3-benzodiazol-3-ium] | 302 ng/mL

Biological target: T1, ENaC (Homo sapiens, UniProt P37088+P51168+P51170)
T1 construct: host or cells: primary human bronchial epithelial cells (HBECs) differentiated at air-liquid interface
T1 sequence (P37088 1-669): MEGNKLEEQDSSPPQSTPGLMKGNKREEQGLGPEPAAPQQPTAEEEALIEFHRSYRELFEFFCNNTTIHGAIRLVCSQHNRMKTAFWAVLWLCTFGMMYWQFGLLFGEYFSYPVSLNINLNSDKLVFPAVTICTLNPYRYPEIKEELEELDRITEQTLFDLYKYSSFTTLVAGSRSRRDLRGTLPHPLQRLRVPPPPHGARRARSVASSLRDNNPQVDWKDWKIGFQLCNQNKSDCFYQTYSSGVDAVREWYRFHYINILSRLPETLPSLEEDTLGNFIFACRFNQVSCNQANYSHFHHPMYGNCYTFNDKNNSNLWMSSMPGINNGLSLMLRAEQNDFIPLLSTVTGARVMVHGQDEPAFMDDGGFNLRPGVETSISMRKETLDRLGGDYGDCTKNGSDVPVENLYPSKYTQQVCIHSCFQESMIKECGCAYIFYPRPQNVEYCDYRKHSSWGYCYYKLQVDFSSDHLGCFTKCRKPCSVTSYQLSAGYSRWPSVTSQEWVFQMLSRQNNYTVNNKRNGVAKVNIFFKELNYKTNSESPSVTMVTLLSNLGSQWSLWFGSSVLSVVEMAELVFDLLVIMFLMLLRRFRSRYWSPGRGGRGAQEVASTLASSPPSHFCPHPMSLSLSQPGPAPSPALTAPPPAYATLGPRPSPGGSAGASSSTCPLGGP
T1 sequence (P51168 1-640): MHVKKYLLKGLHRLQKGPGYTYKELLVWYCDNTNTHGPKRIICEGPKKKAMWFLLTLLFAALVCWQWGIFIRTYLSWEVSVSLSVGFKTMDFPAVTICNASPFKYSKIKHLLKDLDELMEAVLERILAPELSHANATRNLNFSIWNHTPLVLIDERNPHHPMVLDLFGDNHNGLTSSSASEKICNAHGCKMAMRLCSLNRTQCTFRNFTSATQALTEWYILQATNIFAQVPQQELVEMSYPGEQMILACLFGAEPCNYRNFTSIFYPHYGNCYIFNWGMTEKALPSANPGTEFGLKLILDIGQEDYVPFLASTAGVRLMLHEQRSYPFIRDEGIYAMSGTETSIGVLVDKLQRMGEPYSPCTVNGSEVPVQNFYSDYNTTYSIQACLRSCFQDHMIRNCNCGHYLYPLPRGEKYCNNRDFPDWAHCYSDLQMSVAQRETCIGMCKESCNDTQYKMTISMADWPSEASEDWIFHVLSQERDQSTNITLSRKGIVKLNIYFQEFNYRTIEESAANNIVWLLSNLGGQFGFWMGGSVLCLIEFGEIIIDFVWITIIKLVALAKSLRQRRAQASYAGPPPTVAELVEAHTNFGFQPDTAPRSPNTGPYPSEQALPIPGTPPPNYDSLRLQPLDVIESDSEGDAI
T1 sequence (P51170 1-649): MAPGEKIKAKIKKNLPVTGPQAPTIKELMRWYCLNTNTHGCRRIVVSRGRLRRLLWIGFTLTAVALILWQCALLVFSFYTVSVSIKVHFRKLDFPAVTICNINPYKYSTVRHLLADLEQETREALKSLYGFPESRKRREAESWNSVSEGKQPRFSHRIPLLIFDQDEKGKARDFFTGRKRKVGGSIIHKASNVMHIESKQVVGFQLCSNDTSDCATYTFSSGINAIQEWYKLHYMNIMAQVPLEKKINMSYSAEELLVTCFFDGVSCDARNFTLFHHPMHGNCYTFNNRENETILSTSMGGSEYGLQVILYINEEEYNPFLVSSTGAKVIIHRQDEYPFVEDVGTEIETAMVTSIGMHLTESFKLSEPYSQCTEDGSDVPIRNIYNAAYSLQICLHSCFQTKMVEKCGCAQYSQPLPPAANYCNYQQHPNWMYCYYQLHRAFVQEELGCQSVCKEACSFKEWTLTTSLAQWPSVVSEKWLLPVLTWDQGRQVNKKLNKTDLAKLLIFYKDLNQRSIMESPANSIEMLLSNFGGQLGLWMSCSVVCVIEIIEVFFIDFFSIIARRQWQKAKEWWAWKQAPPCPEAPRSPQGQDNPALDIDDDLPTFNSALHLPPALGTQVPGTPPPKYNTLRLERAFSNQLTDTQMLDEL
Test: Short circuit current assay to determine ENaC blocker potency in human bronchial epithelial cells
Assay type: cell-based
Settings: 50% inhibition of total amiloride-sensitive ISC, apical addition, read-out: Averages.ENaC IC50 (nM) Avg
How it was run: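 Primary human bronchial epithelial cells at air-liquid interface (days 14–21) were voltage-clamped at 0 mV in Ussing chambers (Ringer, pH 7.4, 37° C.). Compounds were added apically as cumulative concentrations, then 10 μM amiloride. IC50 was taken as 50% inhibition of amiloride-sensitive ISC.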

Compound | IC50
CCn1c(CNC(=O)c2nc3cc[nH]c3nc2N)[n+](CC)c2ccc(C(=O)NCCN(C[C@H](O)[C@@H](O)[C@H](O)[C@H](O)CO)C[C@H](O)[C@@H](O)[C@H](O)[C@H](O)CO)cc21 [Example 58, 2-[({3-amino-5H-pyrrolo[2,3-b]pyrazin-2-yl}formamido)methyl]-6-[(2-{bis[(2S,3R,4R,5R)-2,3,4,5,6-pentahydroxyhexyl]amino}ethyl)carbamoyl]-1,3-diethyl-1H-1,3-benzodiazol-3-ium] | 78 nM
CCn1c(CNC(=O)c2nc3cc[nH]c3nc2N)[n+](CC)c2ccc(C(=O)N3CCC(CN(C[C@H](O)[C@@H](O)[C@H](O)[C@H](O)CO)C[C@H](O)[C@@H](O)[C@H](O)[C@H](O)CO)CC3)cc21 [Example 52, 2-[({3-amino-5H-pyrrolo[2,3-b]pyrazin-2-yl}formamido)methyl]-5-[4-({bis[(2S,3R,4R,5R)-2,3,4,5,6-pentahydroxyhexyl]amino}methyl)piperidine-1-carbonyl]-1,3-diethyl-1H-1,3-benzodiazol-3-ium] | 69 nM
CCn1c(CNC(=O)c2nc3cc[nH]c3nc2N)[n+](CC)c2ccc(-c3cnn(C4CCN(C(=O)OC(C)(C)C)CC4)c3)cc21 [Example 26, 2-[({3-amino-5H-pyrrolo[2,3-b]pyrazin-2-yl}formamido)methyl]-6-(1-{1-[(tert-butoxy)carbonyl]piperidin-4-yl}-1H-pyrazol-4-yl)-1,3-diethyl-1H-1,3-benzodiazol-3-ium] | 1 nM
Nc1nc2[nH]ccc2nc1C(=O)NCc1n(CC(=O)N2CCCCC2)c2ccccc2[n+]1Cc1ccccc1 [Example 18, 2-[({3-amino-5H-pyrrolo[2,3-b]pyrazin-2-yl}formamido)methyl]-3-benzyl-1-[2-oxo-2-(piperidin-1-yl)ethyl]-1H-1,3-benzodiazol-3-ium] | 5450 nM
CCn1c(CNC(=O)c2nc3cc[nH]c3nc2N)[n+](CC)c2cc(CCCN(C[C@H](O)[C@@H](O)[C@H](O)[C@H](O)CO)C[C@H](O)[C@@H](O)[C@H](O)[C@H](O)CO)ccc21 [Example 45, 2-[({3-amino-5H-pyrrolo[2,3-b]pyrazin-2-yl}formamido)methyl]-5-(3-{bis[(2S,3R,4R,5R)-2,3,4,5,6-pentahydroxyhexyl]amino}propyl)-1,3-diethyl-1H-1,3-benzodiazol-3-ium] | 14 nM
CCn1c(CNC(=O)c2nc3cc[nH]c3nc2N)[n+](CCOCCOCCO)c2ccc(OC)cc21 [Example 14, 2-[({3-amino-5H-pyrrolo[2,3-b]pyrazin-2-yl}formamido)methyl]-1-ethyl-3-{2-[2-(2-hydroxyethoxy)ethoxy]ethyl}-6-methoxy-1H-1,3-benzodiazol-3-ium] | 11 nM
C[n+]1c(CNC(=O)c2nc3cc[nH]c3nc2N)n(Cc2ccccc2)c2ccccc21 [Example 15, 2-[({3-amino-5H-pyrrolo[2,3-b]pyrazin-2-yl}formamido)methyl]-1-benzyl-3-methyl-1H-1,3-benzodiazol-3-ium] | 198 nM
CCn1c(CNC(=O)c2nc3cc[nH]c3nc2N)[n+](CC(=O)OC)c2ccc(OC)cc21 [Example 9, 2-[({3-amino-5H-pyrrolo[2,3-b]pyrazin-2-yl}formamido)methyl]-1-ethyl-6-methoxy-3-(2-methoxy-2-oxoethyl)-1H-1,3-benzodiazol-3-ium bromide] | 48 nM
CCn1c(CNC(=O)c2nc3cc[nH]c3nc2N)[n+](CC)c2ccc(C(=O)NCCCN(C[C@H](O)[C@@H](O)[C@H](O)[C@H](O)CO)C[C@H](O)[C@@H](O)[C@H](O)[C@H](O)CO)cc21 [Example 48, 2-[({3-amino-5H-pyrrolo[2,3-b]pyrazin-2-yl}formamido)methyl]-6-[(3-{bis[(2S,3R,4R,5R)-2,3,4,5,6-pentahydroxyhexyl]amino}propyl)carbamoyl]-1,3-diethyl-1H-1,3-benzodiazol-3-ium] | 18 nM
CCn1c(CNC(=O)c2nc3cc[nH]c3nc2N)[n+](CC)c2ccc(C(=O)O)cc21 [Example 34, 2-[({3-amino-5H-pyrrolo[2,3-b]pyrazin-2-yl}formamido)methyl]-6-carboxy-1,3-diethyl-1H-1,3-benzodiazol-3-ium] | 160 nM
CCn1c(CNC(=O)c2nc3cc[nH]c3nc2N)[n+](CC)c2ccc(-c3cnn(C4CCN(C[C@H](O)[C@@H](O)[C@H](O)[C@H](O)CO)CC4)c3)cc21 [Example 47, 2-[({3-amino-5H-pyrrolo[2,3-b]pyrazin-2-yl}formamido)methyl]-1,3-diethyl-6-(1-{1-[(2S,3R,4R,5R)-2,3,4,5,6-pentahydroxyhexyl]piperidin-4-yl}-1H-pyrazol-4-yl)-1H-1,3-benzodiazol-3-ium] | 5 nM
CCn1c(CNC(=O)c2nc3cc(C)[nH]c3nc2N)[n+](C)c2ccc(OC)cc21 [Example 19, 2-[({3-amino-6-methyl-5H-pyrrolo[2,3-b]pyrazin-2-yl}formamido)methyl]-1-ethyl-6-methoxy-3-methyl-1H-1,3-benzodiazol-3-ium] | 8 nM
CCn1c(CNC(=O)c2nc3cc[nH]c3nc2N)[n+](CC)c2ccc(C(=O)NCCN3CCC(N(C[C@H](O)[C@@H](O)[C@H](O)[C@H](O)CO)C[C@H](O)[C@@H](O)[C@H](O)[C@H](O)CO)CC3)cc21 [Example 51, 2-[({3-amino-5H-pyrrolo[2,3-b]pyrazin-2-yl}formamido)methyl]-6-{[2-(4-{bis[(2S,3R,4R,5R)-2,3,4,5,6-pentahydroxyhexyl]amino}piperidin-1-yl)ethyl]carbamoyl}-1,3-diethyl-1H-1,3-benzodiazol-3-ium] | 38 nM
CCn1c(CNC(=O)c2nc3cc[nH]c3nc2N)[n+](CC(=O)O)c2ccc(OC)cc21 [Example 10, 2-[({3-amino-5H-pyrrolo[2,3-b]pyrazin-2-yl}formamido)methyl]-3-(carboxylatomethyl)-1-ethyl-6-methoxy-1H-1,3-benzodiazol-3-ium] | 199 nM
CCn1c(CNC(=O)c2nc3cc[nH]c3nc2N)[n+](CC)c2ccc(OCCN)cc21 [Example 27, 2-[({3-amino-5H-pyrrolo[2,3-b]pyrazin-2-yl}formamido)methyl]-6-(2-aminoethoxy)-1,3-diethyl-1H-1,3-benzodiazol-3-ium] | 14 nM
